Patent publication US12577537B2, “Method for culturing primary cancer cells through simulated microgravity-induced reprogramming and applications thereof” (SHANDONG UNIVERSITY, priority 2024, dated 2026)

Tests used:
[1] = test system: normal breast tissue cells; assay: Drug sensitivity test on SMGIR-cultured normal breast tissue (cancer-adjacent) cells from patients; format: cell-based; details: Homo sapiens
Source text: (§1) Wherein, FIGS. 12D to 12I show the dose-response relationships of breast cancer cells (D, F, H) and normal breast tissue cells (E, G, I) from three patients (38, 7, and 71) to epirubicin; FIGS. 12J to 12O show the dose-response relationships of breast cancer cells (J, L, N) and normal breast tissue cells (K, M, O) from the same three patients (38, 7, and 71) to cyclophosphamide.
(§2) The inventors conducted drug-related experiments using the cancer cell models prepared by the method of the present application. FIG. 12A lists 8 types of common drugs used in clinical treatment of breast cancer, including epirubicin, cyclophosphamide, docetaxel, etc. This example selected two of them (FIG. 12B: epirubicin, FIG. 12C: cyclophosphamide) to conduct drug sensitivity tests on breast cancer cells from different patients cultivated in Example 5.

[2] = test system: breast cancer cells; assay: Drug sensitivity test on SMGIR-cultured breast cancer cells from patients; format: cell-based; details: Homo sapiens
Source text: as §1, §2

[3] = in vitro; details: human
Source text: as §1, §2

| Compound | IC50 ([1]; normal breast tissue cells from patient 7, SMGIR-cultured (FIG. 12G)) [nM] | IC50 ([1]; normal breast tissue cells from patient 38, SMGIR-cultured (FIG. 12E)) [nM] | IC50 ([1]; normal breast tissue cells from patient 71, SMGIR-cultured (FIG. 12I)) [nM] | IC50 ([2]; 12 h, breast cancer cells from patient 71, SMGIR-cultured (FIG. 12H)) [nM] | IC50 ([2]; breast cancer cells from patient 7, SMGIR-cultured (FIG. 12F)) [nM] | IC50 ([2]; breast cancer cells from patient 38, SMGIR-cultured (FIG. 12D)) [nM] | viability at 4000 μM [3] [%] |
| --- | --- | --- | --- | --- | --- | --- | --- |
| COc1cccc2c1C(=O)c1c(O)c3c(c(O)c1C2=O)C[C@@](O)(C(=O)CO)C[C@@H]3O[C@H]1C[C@H](N)[C@@H](O)[C@H](C)O1 [epirubicin] | 651 | 357 | 766 | 454 | 583 | 369 | – |
| O=P1(N(CCCl)CCCl)NCCCO1 (stereo not shown) [cyclophosphamide] | – | – | – | – | – | – | 70 to 80 |
